Experimental data: patent US20060194819A1, “Activation specific inhibitors of nf-kb and method of treating inflammatory processes in cardio-vascular diseases” (PROCORDE GMBH, priority 2003, published 2006)

Columns and labels:
IKK-complex = target: T1, IKK-complex (Homo sapiens, UniProt O14920+O15111+Q9Y6K9); experiment: In vitro/cell free kinase assay: IKK-complex immunoprecipitated from TNF alpha stimulated HeLa cells, drugs added afterwards, alpha screen; format: biochemical
T1 construct: IKK-complex was immunoprecipitated with anti-NEMO-antibody; endogenous in cells; host or cells: HeLa
T1 sequence (O14920 whole entry): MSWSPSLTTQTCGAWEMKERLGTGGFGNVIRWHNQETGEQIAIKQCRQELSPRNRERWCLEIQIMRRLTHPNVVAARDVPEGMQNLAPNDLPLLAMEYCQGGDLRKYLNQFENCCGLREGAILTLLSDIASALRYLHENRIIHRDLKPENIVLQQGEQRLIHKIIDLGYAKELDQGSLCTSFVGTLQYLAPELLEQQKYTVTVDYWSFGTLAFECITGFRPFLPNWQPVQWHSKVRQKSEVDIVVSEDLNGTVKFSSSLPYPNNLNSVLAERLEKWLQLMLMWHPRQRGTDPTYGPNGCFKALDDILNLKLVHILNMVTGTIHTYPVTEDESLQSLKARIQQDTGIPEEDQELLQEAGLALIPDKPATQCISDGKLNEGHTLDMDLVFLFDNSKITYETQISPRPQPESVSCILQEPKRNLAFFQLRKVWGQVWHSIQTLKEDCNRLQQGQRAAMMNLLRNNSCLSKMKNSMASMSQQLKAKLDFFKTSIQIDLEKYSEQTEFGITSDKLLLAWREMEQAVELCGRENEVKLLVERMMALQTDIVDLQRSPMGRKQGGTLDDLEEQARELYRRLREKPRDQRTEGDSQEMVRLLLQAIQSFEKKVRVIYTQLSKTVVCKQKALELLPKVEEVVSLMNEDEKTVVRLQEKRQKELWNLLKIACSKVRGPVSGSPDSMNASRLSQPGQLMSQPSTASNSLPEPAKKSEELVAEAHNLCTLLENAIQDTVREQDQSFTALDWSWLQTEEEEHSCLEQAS
T1 sequence (O15111 whole entry): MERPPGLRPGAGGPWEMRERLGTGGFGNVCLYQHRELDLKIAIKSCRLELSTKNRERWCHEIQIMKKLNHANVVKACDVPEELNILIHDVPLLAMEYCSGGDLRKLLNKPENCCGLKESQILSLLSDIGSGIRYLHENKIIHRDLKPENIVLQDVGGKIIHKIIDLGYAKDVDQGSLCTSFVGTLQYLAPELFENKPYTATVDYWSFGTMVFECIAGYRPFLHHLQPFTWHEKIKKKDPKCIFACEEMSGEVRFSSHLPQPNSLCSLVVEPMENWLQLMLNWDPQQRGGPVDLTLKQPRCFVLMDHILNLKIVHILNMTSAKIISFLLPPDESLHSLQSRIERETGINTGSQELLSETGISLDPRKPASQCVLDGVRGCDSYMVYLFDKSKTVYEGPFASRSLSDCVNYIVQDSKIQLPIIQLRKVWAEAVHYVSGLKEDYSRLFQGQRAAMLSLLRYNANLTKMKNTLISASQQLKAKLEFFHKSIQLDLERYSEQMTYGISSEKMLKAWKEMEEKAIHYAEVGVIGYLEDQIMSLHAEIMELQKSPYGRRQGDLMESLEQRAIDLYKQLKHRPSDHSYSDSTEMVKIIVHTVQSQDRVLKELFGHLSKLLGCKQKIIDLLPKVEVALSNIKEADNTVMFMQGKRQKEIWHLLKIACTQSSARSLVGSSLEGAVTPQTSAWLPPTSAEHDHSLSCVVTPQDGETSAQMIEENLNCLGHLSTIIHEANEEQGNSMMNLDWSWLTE
T1 sequence (Q9Y6K9 whole entry): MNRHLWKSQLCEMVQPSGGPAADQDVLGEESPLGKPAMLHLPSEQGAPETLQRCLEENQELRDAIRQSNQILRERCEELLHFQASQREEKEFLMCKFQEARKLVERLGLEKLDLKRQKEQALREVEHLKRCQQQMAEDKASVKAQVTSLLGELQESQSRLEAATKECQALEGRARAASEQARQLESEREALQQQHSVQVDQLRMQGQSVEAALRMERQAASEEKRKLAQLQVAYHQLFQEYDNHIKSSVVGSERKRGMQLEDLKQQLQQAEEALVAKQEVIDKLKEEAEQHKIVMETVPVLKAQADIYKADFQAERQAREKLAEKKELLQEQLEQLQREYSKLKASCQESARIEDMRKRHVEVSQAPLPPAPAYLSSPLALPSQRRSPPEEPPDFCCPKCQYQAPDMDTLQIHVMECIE
Experimental: In vitro/cell free kinase assay protocol: HeLa cells were maintained in Dulbecco's modified Eagle's medium (Invitrogen) supplemented with 10% fetal bovine serum, 2 mM L-glutamine, penicillin (50 units/ml) and streptomycin (50 μg/ml). 24 h before treatment with TNF alpha HeLa cells were plated at a density of 1×10^7 per well in 175-mm cell culture dishes to 90% confluences.
The cells were stimulated with 20 ng/ml TNF alpha (Roche) without drugs. After 7 min the cells were washed twice with ice cold PBS followed by scraping and transferring into a 1.5 ml micro centrifuge tube. […] 6.6 μl of detection-buffer (20 mM Hepes pH 7.5, 100 mM NaCl, 1% Tween, 0.1 mM BSA, 50 μg/ml Protein A-Acceptor beads, 250 μg/ml Streptavidin-Donor beads (both Perkin-Elmer), 4 nM anti-phospho-IKBα-antibody (Santa Cruz Biotechnology) was dispensed to each well. After incubation for 1.5 h the plate was measured by alpha screen reader (Perkin Elmer).

[1] = system: systemic TNF alpha release; experiment: LPS induced systemic inflammation in rats, serum TNF alpha by ELISA; format: in vivo; conditions: compound 1 μg/g IV pre-treatment, LPS 0.33 μg/g IV
Experimental: Systemic inflammatory response in rats was induced by lipopolysaccharide (LPS) shock (IV administration of LPS 0.33 μg/g). Inflammatory and inhibition of inflammation by IV administration of compound 56 (1 μg/g) to rats was determined by TNF alphaquantification in […] serum. TNF alpha was detected with an ELISA kit (Pierce) according to the manufacturer's instructions.

CCOC(=O)C1=C(C)N=c2s/c(=C/c3ccc(-c4cccc(C(=O)O)c4)o3)c(=O)n2C1c1ccc(Cl)cc1 (stereo not drawn) [COM 56, 2-[5-(3-Carboxyphenyl)-furan-2-ylmethylene]-5-(4-chlorophenyl)-7-methyl-3-oxo-2,3-dihydro-5H-thiazolo[3,2-a]pyrimidine-6-carboxylic acid ethyl ester]
potency in the inhibition of IKK activity compared to COM 73 (IKK-complex; cell-free assay): significantly higher
inhibition of IKK activity in cell-free assay (IKK-complex; increasing concentrations on isolated IKK complex): dose-dependently inhibited
TNF alpha concentrations in rat serum after LPS [1]: significantly inhibited
